Tests used:
[1] = test system: carrageenan-induced rat paw edema; assay: carrageenan-induced rat paw edema test; assay type: in vivo; parameters: Mean increase in edema weight ± SEM: unit not given here; details: rats, 10 mg/kg intraperitoneally, 4 h after carrageenan; for inhibition in vivo at 10 mg/kg / change in vivo at 10 mg/kg: Rattus norvegicus, ip; for inhibition in vivo at 10 mg/kg: 4 h, read-out: %Inhibition of Paw edema from control group (edema reduction); for change in vivo at 10 mg/kg / Mean increase in edema weight ± SEM: N = 6; for change in vivo at 10 mg/kg: read-out: Mean % increase in edema weight ± SEM; for % Activity relative to indomethacine: indomethacin = 100
Description: The in vivo anti-inflammatory effects of the newly synthesized pyrazolopyrimidine derivatives were assessed by utilizing the functional model of carrageenan-induced rat paw edema using indomethacin as the reference drug. Mean changes and the percent increase in paw edema weight of animals pretreated with the tested compounds after 4 h from the induction of inflammation were measured, together with the percent inhibition of induced rat paw edema by the tested compounds. The anti-inflammatory activity (relative potency) of the tested compounds relative to that of indomethacin was also calculated (Table 1) (Fig. 2).
The in vivo carrageenan-induced rat paw edema model of inflammation was used to evaluate the anti-inflammatory properties of the newly synthesized compounds according to the previously reported Winter et al. method.
Adult male albino rats weighing 100–120 g (obtained from the animal house of the department of Physiology, Faculty of Medicine, Alexandria University) were used throughout the work. Animals were randomly divided into groups of six rats each. They were kept in an animal house under standard conditions of light and temperature with free access to food and water ad libitum and allowed to be accustomed to their environment for two days before testing.
Indomethacin, used as a reference standard (Khahira for Pharmaceutical and Chemical Industry, Cairo, Egypt), and the test compounds were dissolved in DMSO and were injected intraperitoneally at a dose level of 10 mg/kg body weight. Control animals, on the other hand, were intraperitoneally injected with appropriate volume of DMSO only. After one hour of the above treatment, an inflammatory edema in the right hind paw of all animals was induced by subcutaneous injection of 0.05 ml of freshly prepared solution of 1% carrageenan (λ-Carrageenan Sigma–Aldrich Corp. St. Louis, MO, USA) in sterile normal saline (0.9%), into the subplantar tissue of the paw. An equal volume of saline was injected to the left hind paw and served as internal control for the degree of inflammation in the right hind paw.
Four hours after carrageenan injection, animals were decapitated and both the right and left hind paws were excised at a standard point and weighed. The difference in weight from edema between right and left paws was taken as a measure of the degree of inflammation for each animal. The mean increase in weight of the carrageenan-injected paw over the other paw in each group was measured and the percent increase of edema was calculated. The anti-inflammatory efficacy of the tested compounds was assessed by comparing the change in paw weight in the treated animals with that in control animals (treated with DMSO only) and expressed as a percent inhibition of the edema (percent protection against inflammation), calculated according to the following equation: % Inhibition of edema=(1-Wt/Wc)×100 where Wt is the mean increase in paw weight in rats treated with the test compounds and Wc is the mean increase in paw weight in the control group. The anti-inflammatory activity of the test compounds relative to that of indomethacin was also determined (Table 2).
In the anti-inflammatory study, data obtained were expressed as the mean ± standard error (SEM). Statistical significance was determined by comparing the values of the test compounds and the standard with those obtained from the control group of animals using One-way ANOVA with Dunnett’s post-test using the GraphPad Prism version 3.00 for Windows (GraphPad Software, San Diego California USA, www.graphpad.com). The difference in results was considered significant if P < 0.001.

[2] = test system: gastric mucosa of rats; assay: gastric ulcerogenic effect (Meshali's method, ulcer index by Robert's method); assay type: in vivo, rat; parameters: key to Ulcer index: ulcer index = %incidence/10 + avg no. of ulcers + avg severity (0–4)
Description: The ulcer index was calculated according to Robert’s method.
Adult male albino rats weighing between 100 and 120 g were used. Animals were divided into groups of five animals each. Rats were fasted 20 h before drug administration. Water was given ad libitum. The control group received the vehicle (1% gum acacia) orally. Other groups received indomethacin or test compounds orally in a dose of 10 mg/kg body weight suspended in 1% gum acacia. Rats were fasted for 2 h, allowed to feed for 2 h, then fasted for another 20 h. Rats were given another two doses on the second and third days. On the fourth day, rats were sacrificed by diethyl ether; the stomach of each rat was removed, opened along the greater curvature, and rinsed with cold 0.9% saline. The stomach was stretched, by pins, on a corkboard and inspected with a 3x magnifying lens for any evidence of mucosal damage. The ulcer index was calculated according to Robert’s method. The number of mucosal damage (red spots) was counted and their severity (ulcerogenic severity) was graded from 0 to 4 according to the following score assignment:
The following figures were calculated: • –– % Incidence/10 = [number of rats showing ulcer of any grade divided by total number of rats in the group × 100]/10. • –– Average number of ulcers: number of ulcers in the group/total number of rats in the group. • –– Average severity: Σ [each ulcer multiplied by its score of severity]/number of ulcers in the group. • Ulcer index = the sum of the 3 figures. • Results are tabulated in Table 2.

Compound | melting point [°C] | inhibition in vivo at 10 mg/kg [1] [%] | change in vivo at 10 mg/kg [1] [%] | Mean increase in edema weight ± SEM [1] | % Activity relative to indomethacine [1] [%] | % ulceration in the population of test animals ([2]; oral 10 mg/kg) [%] | Average No. of ulcer ([2]; oral 10 mg/kg on three days) | % Incidence/10 ([2]; oral 10 mg/kg on three days, 5 animals per group) | % Ulcerogenicity relative to indomethacin ([2]; oral 10 mg/kg on three days, indomethacin = 100) [%] | Average severity ([2]; oral 10 mg/kg on three days, score 0 to 4) | Ulcer index ([2]; oral 10 mg/kg on three days, sum of the 3 figures)
Cc1nc2c(cnn2-c2ccccc2)c(=O)n1N1C(=O)CSC1c1ccccc1 (centres unmarked) [Compound 8a, 6-Methyl-5-(4-oxo-2-phenyl-1,3-thiazolidin-3-yl)-1-phenyl-1,5-dihydro-4H-pyrazolo[3,4-d]-pyrimidin-4-one] | 179 to 181 | 37.6 | 12.5 ± 0.376 | 0.98 ± 0.017 | 55.14 | – | – | – | – | – | –
Cc1nc2c(cnn2-c2ccccc2)c(=O)n1N [Compound 5, 5-Amino-6-methyl-1-phenyl-1,5-dihydro-4H-pyrazolo[3,4-d]pyrimidin-4-one] | – | 33.1 | 19.8 ± 1.6 | 1.05 ± 0.089 | 48.60 | – | – | – | – | – | –
Cc1nc2c(cnn2-c2ccccc2)c(=O)n1N1C(=O)CC(=O)N(c2ccccc2)C1=S [Compound 12a, 1-(6-Methyl-4-oxo-1-phenyl-1,4-dihydro-5H-pyrazolo[3,4-d]pyrimidin-5-yl)-3-phenyl-2-thioxodihydropyrimidine-4,6(1H,5H)-dione] | – | 35 | 13.6 ± 0.795 | 1.02 ± 0.060 | – | – | – | – | – | – | –
Cc1nc2c(cnn2-c2ccccc2)c(=O)n1N1C(=O)CSC1c1ccc(Cl)cc1 (centres unmarked) [Compound 8b, 5-[2-(4-Chlorophenyl)-4-oxo-1,3-thiazolidin-3-yl]-6-methyl-1-phenyl-1,5-dihydro-4H-pyrazolo[3,4-d]pyrimidin-4-one] | 191 to 195 | 40.8 | 13 ± 0.702 | 0.93 ± 0.042 | 59.81 | – | – | – | – | – | –
Cc1nc2c(cnn2-c2ccccc2)c(=O)n1N=Cc1ccc(Cl)cc1 [Compound 7b, 5-[(4-Chlorobenzylidene)amino]-6-methyl-1-phenyl-1,5-dihydro-4H-pyrazolo[3,4-d]-pyrimidin-4-one] | 195 to 196 | 36.3 | 15.2 ± 1.4 | 1.00 ± 0.063 | 53.28 | – | – | – | – | – | –
O=c1c2cnn(-c3ccccc3)c2nc2ccc(-c3ccccc3)nn12 [Compound 16, 1,7-Diphenylpyrazolo[3′,4′:4,5]pyrimido[1,2-b]pyridazin-4(1H)-one] | 118 to 119 | 28.1 | 14.3 ± 0.98 | 1.13 ± 0.067 | 41.13 | – | – | – | – | – | –
CCOC(=O)c1cc2nc3c(cnn3-c3ccccc3)c(=O)n2[nH]c1=O [Compound 15, Ethyl 4,7-dioxo-1-phenyl-1,4,6,7-tetrahydropyrazolo[3′,4′:4,5]pyrimido[1,2-b]-pyridazine-8-carboxylate] | 172 to 173 | 41.4 | 16.4 ± 1.02 | 0.92 ± 0.060 | 60.75 | – | – | – | – | – | –
O=c1c2cnn(-c3ccccc3)c2nc2cc3c(nn12)CCCC3 [Compound 17, 1-Phenyl-7,8,9,10-tetrahydropyrazolo[3′,4′:4,5]pyrimido[1,2-b]cinnolin-4(1H)-one] | 142 to 145 | 29.9 | 15.8 ± 0.756 | 1.10 ± 0.052 | 43.93 | – | – | – | – | – | –
Cc1nc2c(cnn2-c2ccccc2)c(=O)n1N=Cc1ccccc1 [Compound 7a, 5-(Benzylideneamino)-6-methyl-1-phenyl-1,5-dihydro-4H-pyrazolo[3,4-d]pyrimidin-4-one] | 184 to 186 | 34.4 | 15.3 ± 0.515 | 1.03 ± 0.033 | 50.46 | – | – | – | – | – | –
COc1ccc2c(c1)c(CC(=O)O)c(C)n2C(=O)c1ccc(Cl)cc1 [Indomethacin, reference compound] | – | 68.2 | 6.37 ± 0.366 | 0.50 ± 0.026 | 100.0 | 100 | 4.4 | 10 | 100.00 | 2.86 | 17.26
Nn1c(C=O)nc2c(cnn2-c2ccccc2)c1=O [Compound 13, 5-Amino-4-oxo-1-phenyl-4,5-dihydro-1H-pyrazolo[3,4-d]pyrimidine-6-carbaldehyde] | 145 to 146 | 39.5 | 15.1 ± 1.07 | 0.95 ± 0.043 | 57.95 | – | – | – | – | – | –

Continued, in another order:

melting point [°C] | Compound | inhibition in vivo at 10 mg/kg [1] [%] | change in vivo at 10 mg/kg [1] [%] | Mean increase in edema weight ± SEM [1] | % Activity relative to indomethacine [1] [%] | % ulceration in the population of test animals ([2]; oral 10 mg/kg) [%] | Average No. of ulcer ([2]; oral 10 mg/kg on three days) | % Incidence/10 ([2]; oral 10 mg/kg on three days, 5 animals per group) | % Ulcerogenicity relative to indomethacin ([2]; oral 10 mg/kg on three days, indomethacin = 100) [%] | Average severity ([2]; oral 10 mg/kg on three days, score 0 to 4) | Ulcer index ([2]; oral 10 mg/kg on three days, sum of the 3 figures)
264 to 267 | Cc1nc2c(cnn2-c2ccccc2)c(=O)n1N=C1SCC(=O)N1c1ccccc1 [Compound 10a, 6-Methyl-5-[(4-oxo-3-phenyl-1,3-thiazolidin-2-ylidene)amino]-1-phenyl-1,5-dihydro-4H-pyrazolo[3,4-d]pyrimidin-4-one] | 52.2 | 9.5 ± 0.326 | 0.75 ± 0.022 | 76.64 | – | – | – | – | – | –
157 to 160 | Cc1nc2c(cnn2-c2ccccc2)c(=O)n1NC(=S)Nc1ccc(Cl)cc1 [Compound 9b, 1-(4-Chlorophenyl)-3-(6-methyl-4-oxo-1-phenyl-1,4-dihydro-5H-pyrazolo[3,4-d]pyrimidin-5-yl)thiourea] | 47.8 | 15.7 ± 1.03 | 0.82 ± 0.048 | 70.10 | – | – | – | – | – | –
145 to 150 | Cc1nc2c(cnn2-c2ccccc2)c(=O)n1NC(=S)Nc1ccccc1 [Compound 9a, 1-(6-Methyl-4-oxo-1-phenyl-1,4-dihydro-5H-pyrazolo[3,4-d]pyrimidin-5-yl)-3-phenylthiourea] | 42.7 | 12.7 ± 0.748 | 0.90 ± 0.058 | 62.63 | – | – | – | – | – | –
198 to 201 | Cc1nc2c(cnn2-c2ccccc2)c(=O)n1N1C(=O)CC(=O)N(c2ccc(Cl)cc2)C1=S [Compound 12b, 1-(4-Chlorophenyl)-3-(6-methyl-4-oxo-1-phenyl-1,4-dihydro-5H-pyrazolo[3,4-d]pyrimidin-5-yl)-2-thioxodihydropyrimidine-4,6(1H,5H)-dione] | 45.9 | 19.3 ± 0.905 | 0.85 ± 0.043 | 67.29 | – | – | – | – | – | –
